Experimental data reported in patent US4883869A, “Novel beta-lactams containing amino acid substituents” (The Upjohn Company, priority 1988, dated 1989).
Structures can show the parent of a compound that is named as a salt.

What was measured:
Assay in all cases: Minimum inhibitory concentration by agar dilution, Mueller Hinton Agar (NCCLS M7-A)
Format in all cases: cell-based
Pseudomonas aeruginosa = settings: 20 h, 35° C.
Protocol: (§1) The compounds of this invention and their respective pharmaceutically acceptable salts have antibiotic activity against a variety of gram-negative bacteria including Escherichia coli, Klebsiella pneumoniae, and Pseudomonas aeruginosa. The compounds are useful for treating bacterial infections in animals, including and most preferably humans. Compounds of the invention are tested for in vitro antimicrobial activity using standard testing procedures such as the determination of minimum inhibitory concentration (MIC) by methods described in "Methods for Dilution Antimicrobial Susceptibility Tests for Bacteria That Grow Aerobically" (M7-A) Published December 1985 by the National Committee for Clinical Laboratory Standards, 771 East Lancaster Avenue, Villanova, PA 19084. Briefly, MIC values are determined in unsupplemented Mueller Hinton Agar (MHA). The compounds tested are diluted serially into molten MHA at 47° C. The agar is poured into petri dishes and allowed to harden. The various bacteria used for testing are grown overnight on MHA at 35° C. and transferred to Tryptiease Soy Broth (TSB) until a turbidity of 0.5 McFarland standard is obtained. The bacteria are diluted one to twenty in TSB and inoculated on the plates (1 μl using a Steers replicator).

Staphylococcus aureus = settings: MHA, 35° C., 20 hours; for MIC: Staphylococcus aureus, Culture No. 6675
Protocol: as §1

Proteus vulgaris = settings: Culture No. 9679, MHA, 35° C., 20 hours
Protocol: as §1

Escherichia coli = settings: 20 h, 35° C.
Protocol: as §1

Enterobacter cloacae = settings: 20 h, 35° C.
Protocol: as §1

Streptococcus faecalis = settings: Enterococcus faecalis; Culture No. 694; MHA, 35° C., 20 hours
Protocol: as §1

Klebsiella pneumoniae = settings: Culture No. 58, MHA, 35° C., 20 hours
Protocol: as §1

Streptococcus pneumoniae = settings: Culture No. 41, MHA, 35° C., 20 hours
Protocol: as §1

Citrobacter freundii = settings: Culture No. 3507, MHA, 35° C., 20 hours
Protocol: as §1

Streptococcus pyogenes = settings: Culture No. 152, MHA, 35° C., 20 hours
Protocol: as §1

Klebsiella oxytoca = settings: 20 h, 35° C.
Protocol: as §1

Serratia marcescens = settings: Culture No. 6888, MHA, 35° C., 20 hours
Protocol: as §1

Row | Structure (SMILES) | MIC (Pseudomonas aeruginosa; Culture No. 6432, MHA) [µg/mL] | MIC (Pseudomonas aeruginosa; Culture No. 6676, MHA) [µg/mL] | MIC (Pseudomonas aeruginosa; Culture No. 9191, MHA) [µg/mL] | MIC (Pseudomonas aeruginosa; Culture No. 30133, MHA) [µg/mL] | Minimum Inhibitory Concentration (Staphylococcus aureus; Culture No. 3665) [MCG per ML] | Minimum Inhibitory Concentration (Staphylococcus aureus; Culture No. 6685) [MCG per ML] | MIC (Staphylococcus aureus) [µg/mL] | MIC (Proteus vulgaris) [µg/mL] | MIC (Escherichia coli; Culture No. 311, MHA) [µg/mL] | MIC (Escherichia coli; Culture No. 9379, MHA) [µg/mL] | MIC (Escherichia coli; Culture No. 9380, MHA) [µg/mL] | MIC (Enterobacter cloacae; Culture No. 9381, MHA) [µg/mL] | MIC (Enterobacter cloacae; Culture No. 9382, MHA) [µg/mL] | MIC (Streptococcus faecalis) [µg/mL] | MIC (Klebsiella pneumoniae) [µg/mL] | MIC (Streptococcus pneumoniae) [µg/mL] | MIC (Citrobacter freundii) [µg/mL] | MIC (Streptococcus pyogenes) [µg/mL] | MIC (Klebsiella oxytoca; Culture No. 9383, MHA) [µg/mL] | MIC (Klebsiella oxytoca; Culture No. 9384, MHA) [µg/mL] | other results
1 | NCC(=O)OCC1C(NC(=O)C(=NOCC(=O)O)c2csc(N)n2)C(=O)N1S(=O)(=O)O (mixture of isomers) [Compound 11, Cis-(±)-3-[[2'-(2"-amino-4"-thiazolyl)-(Z)-2'-(1'"-carboxymethoxy)imino]acetamido]-4-[N-glycinoyloxymethyl]-2-oxo-1-azetidinesulfonic acid] | 64 | 8 | 8 | 16 | > 128 | > 128 | > 128 | 0.125 | 0.125 | 0.25 | 0.25 | 64 | 0.25 | > 128 | 0.125 | 128 | 0.25 | 16 | 1 | 0.125 | MIC (Serratia marcescens): 0.5 µg/mL
2 | Nc1nc(C(=NOCC(=O)O)C(=O)NC2C(=O)N(S(=O)(=O)O)C2COC(=O)CNC=O)cs1 (mixture of isomers) [Compound 7, Cis-(±)-[2'-(2"-amino-4"-thiazolyl)-(Z)-2'-(1"-carboxymethoxy)imino]acetamido-4-[N-formylglycinoyloxymethyl]-2-oxo-1-azetidinesulfonic acid monopotassium salt] | 8 | 4 | 4 | 8 | > 128 | > 128 | > 128 | < 0.03 | 0.06 | 0.125 | 0.25 | 64 | 0.125 | > 128 | 0.06 | 64 | 0.125 | 16 | 0.5 | 0.06 | MIC (Escherichia coli; Culture No. 9451, MHA): 0.125 µg/mL; MIC (Serratia marcescens): 0.25 µg/mL
